Key:
[1] = test system: LNCaP cells and MDA-MB-231 cells; assay: Synthesis of lipid classes in cancer cells; format: cell-based, human
Experimental: Icaritin and Desmethylicaritin decrease Lipogenesis in Prostate and Breast Cancer cells via inhibition of fatty acid synthase (FAS) Activity. Protein extracts from LNCaP cells, which had been ^14C-labeled with malonyl-CoA, were pretreated with these two compounds. A concentration of 0.5 μM Icaritin or Desmethylicaritin reduced the in vitro enzymatic FAS activity to less than 50%. […] Consistent with their FAS inhibitory effect, inhibition of lipogenesis by Icaritin and Desmethylicaritin affected the synthesis of phospholipids (including phosphatidylcholine, phosphatidylethanolamine, phosphatidylinositol, phosphatidylserine, and sphingomyelin) and of triglycerides in LNCaP cells and MDA-MB-231 cells. […] Cholesterol synthesis, however, accounts for less than 10% of the total lipogenic activity in LNCaP and MDA-MB-231 cancer cells, whereas ˜75 and 15% of the lipogenic activity in these cells represents phospholipid and triglyceride synthesis, respectively.

U-251 = assay: MTT cell viability assay, U-251; format: cell-based, human; conditions: Homo sapiens, 72 h, U-251, Glioblastoma, 3 days culture
Experimental: (§1) 26 cancer cell lines were grown in normal growth medium in the presence of different concentrations Icaritin or Desmethylicaritin. After culture for 3 days, the cell viability was then measured by an MTT assay. […] Some EC50s were lower than 10 uM for these two compounds. […] Whereas, normal human mammary gland epithelial cells (MCF10A) were not sensitive to Icaritin and Desmethylicaritin. These cells grew well when treated with these two compounds at a concentration of 50 uM.

NCI-H23 = assay: MTT cell viability assay, NCI-H23; format: cell-based, human; conditions: Homo sapiens, 72 h, NCI-H23, Lung, 3 days culture
Experimental: as §1

SK-MEL-5 = assay: MTT cell viability assay, SK-MEL-5; format: cell-based, human; conditions: Homo sapiens, 72 h, SK-MEL-5, Skin, 3 days culture
Experimental: as §1

MDA-MB-231 = assay: MTT cell viability assay, MDA-MB-231; format: cell-based, human; conditions: Homo sapiens, 72 h, MDA-MB-231, Breast, 3 days culture
Experimental: as §1

[2] = test system: LNCaP prostate cancer cells; assay: Lipogenesis: incorporation of 2-14C-labeled acetate into cellular lipids; format: cell-based; conditions: Homo sapiens, 5 h, 2-14C-acetate incorporation
Experimental: To investigate the ability of Icaritin and Desmethylicaritin to inhibit lipogenesis, LNCaP prostate cancer cells were treated with different concentrations of Icaritin and Desmethylicaritin for 5 h, and incorporation of 2-^14C-labeled acetate into cellular lipids was quantitated. Both of Icaritin and Desmethylicaritin inhibited lipogenesis by more than 50% at a concentration of 0.5 uM. Higher concentrations further reduced lipogenesis in a dose-dependent way. A further decline was observed after 24 h of exposure.

PC3 = assay: MTT cell viability assay, PC3; format: cell-based, human; conditions: Homo sapiens, PC-3, 72 h, PC3, Prostate, 3 days culture
Experimental: as §1

human colon cancer = assay: Human colon cancer xenograft model; format: in vivo
Excerpt: (§2) ICA was extensively biotransformed and converted to at least three metabolites: Icariside II (molecule weight=514), Icaritin (molecule weight=368), and Desmethylicaritin (molecule weight=354). […] Icaritin and Desmethylicaritin have huge potentials to be developed as novel and broad anti cancer drugs.
FIG. 3. Response of Human Colon tumor to treatment with Icaritin and Desmethyliciarityn.

D145 = assay: MTT cell viability assay, D145; format: cell-based, human; conditions: Homo sapiens, 72 h, D145, Prostate, 3 days culture
Experimental: as §1

human prostate cancer = assay: Human prostate cancer xenograft model; format: in vivo
Excerpt: as §2
FIG. 1. Response of Human Prostate tumor to treatment with Icaritin and Desmethyliciarityn.

LoVo = assay: MTT cell viability assay, LoVo; format: cell-based, human; conditions: Homo sapiens, 72 h, Colon, 3 days culture
Experimental: as §1

HCT-116 = assay: MTT cell viability assay, HCT-116; format: cell-based, human; conditions: Homo sapiens, 72 h, HCT-116, Colon, 3 days culture
Experimental: as §1

HT29 = assay: MTT cell viability assay, HT29; format: cell-based, human; conditions: Homo sapiens, HT-29, 72 h, HT29, Colon, 3 days culture
Experimental: as §1

MCF-10a = assay: MTT cell viability assay, MCF-10a normal breast epithelial cells; format: cell-based, human
Experimental: as §1

BT-549 = assay: MTT cell viability assay, BT-549; format: cell-based, human; conditions: Homo sapiens, 72 h, BT-549, Breast, 3 days culture
Experimental: as §1

SN12C = assay: MTT cell viability assay, SN12C; format: cell-based, human; conditions: Homo sapiens, 72 h, Kidney, 3 days culture
Experimental: as §1

G-361 = assay: MTT cell viability assay, G-361; format: cell-based, human; conditions: Homo sapiens, 72 h, G-361, Skin, 3 days culture
Experimental: as §1

Widr = assay: MTT cell viability assay, Widr; format: cell-based, human; conditions: Homo sapiens, 72 h, Colon, 3 days culture
Experimental: as §1

Raji = assay: MTT cell viability assay, Raji; format: cell-based, human; conditions: Homo sapiens, 72 h, Lymphoma, 3 days culture
Experimental: as §1

LNCAP = assay: MTT cell viability assay, LNCAP; format: cell-based, human; conditions: Homo sapiens, 72 h, Prostate, 3 days culture
Experimental: as §1

CCL-247 = assay: MTT cell viability assay, CCL-247; format: cell-based, human; conditions: Homo sapiens, 72 h, CCL-247, Colon, 3 days culture
Experimental: as §1

CCL-225 = assay: MTT cell viability assay, CCL-225; format: cell-based, human; conditions: Homo sapiens, 72 h, CCL-225, Colon, 3 days culture
Experimental: as §1

SKOV3 = assay: MTT cell viability assay, SKOV3; format: cell-based, human; conditions: Homo sapiens, SK-OV-3, 72 h, SKOV3, Ovary, 3 days culture
Experimental: as §1

Mid PaCa-2 = assay: MTT cell viability assay, Mid PaCa-2; format: cell-based, human; conditions: Homo sapiens, 72 h, Mid PaCa-2, Pancreas, 3 days culture
Experimental: as §1

Jurkat T cell = assay: MTT cell viability assay, Jurkat T cell; format: cell-based, human; conditions: Homo sapiens, 72 h, Leukemia, 3 days culture
Experimental: as §1

AU-565 = assay: MTT cell viability assay, AU-565; format: cell-based, human; conditions: Homo sapiens, AU565, 72 h, AU-565, Breast, 3 days culture
Experimental: as §1

COc1ccc(-c2oc3c(CC=C(C)C)c(O)cc(O)c3c(=O)c2O)cc1 [Icaritin]
synthesis of cholesterol ([1]; LNCaP and MDA-MB-231 cells): decreased | synthesis of phospholipids and of triglycerides ([1]; LNCaP cells and MDA-MB-231 cells): affected | IC50 (U-251): 7.1 µM | IC50 (NCI-H23): 6 µM | IC50 (SK-MEL-5): 9.9 µM | IC50 (MDA-MB-231): 5.3 µM | inhibition at 0.5 µM [2]: > 50% | IC50 (PC3): 9.4 µM | human colon cancer cell growth in vivo (human colon cancer): strongly inhibiting | IC50 (D145): 9.3 µM | human prostate cancer cell growth in vivo (human prostate cancer): strongly inhibiting | IC50 (LoVo): 10.3 µM | IC50 (HCT-116): 6.4 µM | IC50 (HT29): 15.3 µM | IC50 (MCF-10a; Homo sapiens, 72 h, MCF-10a, Normal breast epithelial cells, 3 days culture, MTT): > 50 µM | sensitivity of normal human mammary gland epithelial cells (MCF10A) (MCF-10a; cells grew well at 50 uM): not sensitive | IC50 (BT-549): 8 µM | IC50 (SN12C): 15.8 µM | IC50 (G-361): 6.9 µM | IC50 (Widr): 10.6 µM | IC50 (Raji): 5.4 µM | IC50 (LNCAP): 5.3 µM | IC50 (CCL-247): 16.5 µM | IC50 (CCL-225): 8.8 µM | IC50 (SKOV3): 9.8 µM | IC50 (Mid PaCa-2): 8.1 µM | IC50 (Jurkat T cell): 5.1 µM | IC50 (AU-565): 7.9 µM

Source: patent US20080214844A1, “Icaritin and desmethylicaritin as anti-cancer agents” (priority 2007, published 2008)
